Several values for one entry are separate records, joined by “and”; a condition that tells them apart may be missing. Equal values may be shown once.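 Five concentrations, 48 hours, 96-well plates. GI50 = concentration required for 50% inhibition of growth. TGI: concentration producing complete growth inhibition.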
Tested on: MDA-MB-468 breast
Assay: NCI anticancer screen, dose series, 48 h

Structure (SMILES) | GI50 | TGI
c1ccc(-c2nc(N3CCNCC3)c3nc(-c4ccccc4)oc3n2)cc1 | 1930 nM | 3.66 µM
C=C1C(C)C2C(Cc3ccccc3)NC(=O)C23C(OC(C)=O)/C=C/C(C)(O)CC(C)C/C=C/C3C1O (configuration not stated) | 199 nM | > 100 µM
O=Nc1c(O)ccc2ccccc12 | 4510 nM | 25.3 µM
CCS/C(Nc1ccccc1)=C(\C#N)C(=O)Nc1ccc(OC)cc1 | 1390 nM | 7.51 µM
COc1ccc(/C=C(\C#N)c2cc3ccccc3n2C)cc1 | 273 nM | 1.99 µM
O=C(Nc1cc(Cl)cc(Cl)c1)Nc1ccc2oc(=O)ccc2c1 | 2810 nM | 7.45 µM
COC(=O)CCC1=C(C)c2cc3[n-]c(cc4nc(cc5[n-]c(cc1n2)c(CCC(=O)OC)c5C)C=C4C)cc3C.[Cd+2] | 3290 nM | 12 µM
Cc1nc(NC(=O)N2CCC[C@H]2C(N)=O)sc1-c1ccnc(C(C)(C)C(F)(F)F)c1 | 309 nM and 596 nM | 6.97 µM and > 10 µM
CCSC1=CC(=O)c2ccccc2C1=O | 180 nM | 0.417 µM
Oc1ccccc1-n1c(-c2ccccc2)ccc1-c1ccccc1 | 3300 nM | 15.7 µM
CC/C=C\CCC/C=C1/C(=O)C=C[C@@H]1C/C=C\CCCC(=O)O | 4610 nM | 18.7 µM
O=C(CCN1CCCC1)Nc1ccc2c(NCCCc3ccccc3)c3ccccc3nc2c1 | 477 nM | 1.7 µM
O=C(/C=C\c1ccnc2ccccc12)c1ccc([N+](=O)[O-])cc1 | 1040 nM | 9.09 µM
COc1cc(C2C(C#N)=C(N)OC3=C2C(=O)c2ccccc2C3=O)cc(OC)c1OC (configuration not stated) | 2260 nM | 6.64 µM
CCCC[C@@H](COC(=O)N(Cc1cccs1)Cc1cccs1)NC(=O)N[C@@H](CC(=O)OC)c1ccc2c(c1)OCO2 | > 100000 nM | > 100 µM
Oc1c(CN2CCCC2)cc(COCc2ccccc2)c2cccnc12 | 2300 nM | 6.14 µM
COc1ccc2c3c(c(OCCCN(C)C)nc2c1)-c1ccc(Cl)cc1C3=O | 4700 nM | 19.5 µM
N#Cc1nc(-c2ccccc2)oc1S(=O)(=O)N1CCOCC1 | 2210 nM | 6.21 µM
O=C1/C(=C/c2cccs2)CCC/C1=C\c1cccs1 | 577 nM | 14.9 µM
COc1ccc(/C=C2\N=C3SC=C(N)N3C2=O)cc1 | 291 nM | 1.66 µM
FC(F)(F)c1ccc(-c2cnc(Br)nc2NC2CCCCCC2)cc1 | 24900 nM | > 100 µM
CC(=O)N1CC(F)(F)c2c(Sc3ncc(N4CCC5(CC4)COC[C@H]5N)nc3N)cccc21 | 14800 nM | 50.5 µM

Structure (SMILES) | GI50 | TGI
COc1ccc(/C=C\c2cc(OC)c(OC)c(OC)c2)c(NS(=O)(=O)c2ccc(C)cc2)c1O | 26.1 nM | 0.711 µM
C[Se]C(=O)CC1=C2C=C(F)C=CC2/C(=C\c2ccc(S(C)=O)cc2)C1C (configuration not stated) | 134 nM | 1.41 µM
CC(C)(C)CC(C)(C)c1ccc(OCCOCCSC(=N)N)cc1 | 1590 nM | 3.32 µM
Cn1ccnc1C(=O)/C=C/c1ccc(C(=O)Nc2nc3ccccc3[nH]2)cc1 | 1290 nM | > 25 µM
C#Cc1ccc(NC(=O)c2ccc(/C=C/C(=O)c3nccn3C)cc2)cc1 | 400 nM | 0.918 µM
CC[C@H](C)[C@H](NC(=O)C12C3C4C1C1C2C3C41NC(C)=O)C(=O)N(C)[C@H](C[C@@H](OC(C)=O)c1nc(C(=O)N[C@@H](Cc2ccccc2)C[C@H](C)C(=O)OC)cs1)C(C)C (some centres not stated) | 81 nM | > 3.98 µM
O=C(/C=C/c1ccco1)Nc1ncc(Cc2ccc(F)cc2)s1 | 142 nM | > 25.2 µM
CN(C)c1ccc(/C=C/c2ccnc3ccccc23)cc1 | 298 nM | 16.9 µM
COc1ccc2c(c1)OC13Oc4cc(OC)ccc4C=C1CCCC3=C2 | > 100000 nM | > 100 µM
Fc1ccc(-c2ncn(C3CCNCC3)c2-c2ccnc(Oc3cccc(F)c3)n2)cc1 | 2610 nM | 6.82 µM
COc1ccc(C(O)c2cc3c(N)c(C(=O)Nc4cccc(Br)c4)sc3nc2C)cc1 (configuration not stated) | 96.9 nM | 
Cn1c(=O)c2[nH]c(COc3ccc(C(C)(C)C)cc3)nc2n(C)c1=O | 8080 nM | 72.3 µM
COc1ccc(-c2ccc(-c3ccc(C(=N)N)cn3)s2)cc1Cl | 1570 nM | 3.15 µM
CC#CC(=O)N1CCC[C@H]1c1nc(-c2ccc(C(=O)Nc3ccccn3)cc2)c2c(N)nccn12 | 19000 nM | > 76 µM
COc1ccccc1-n1c(SCc2cc(OC)c(OC)c(OC)c2)nc2ccc(Cl)cc2c1=O | 895 nM | 8.99 µM
CCNCCNc1cc(-c2ccc(F)cc2)c(C#N)c2nc3ccccc3n12 | 1850 nM | 4.12 µM
NC(CSC(c1ccccc1)(c1ccccc1)c1ccc2ccccc2c1)C(=O)O (configuration not stated) | 45 nM | 22.3 µM
O=c1[nH]c(-c2ccc(C(F)(F)F)cc2)nc2c1CSCC2 | 36100 nM | > 100 µM
C[C@@H]1CC[C@@]2(OC1)O[C@H]1C[C@H]3[C@@H]4CC=C5C[C@@H](O[C@@H]6O[C@H](CO)[C@@H](O[C@@H]7O[C@@H](CO)[C@H](O)[C@H]7O)[C@H](O)[C@H]6O[C@@H]6O[C@@H](C)[C@H](O)[C@@H](O)[C@H]6O)CC[C@]5(C)[C@H]4CC[C@]3(C)[C@H]1[C@@H]2C | 361 nM | 1.45 µM
COc1ccc(NC(=O)c2cc(OC)c(OC)c(OC)c2)cc1O | 861 nM | 15.8 µM
CN(Cc1cnc2nc(N)nc(N)c2n1)c1ccc(C(=O)NC(CCC(=O)O)C(=O)O)cc1 (configuration not stated) | 112 nM | > 100 µM
C#Cc1nc(/C=C\CCCCCCC(=O)NO)cs1 | 1190 nM | 3.12 µM
